Source: US20100015709A1, “Regulating Stem Cell Differentiation By Controlling 2D and 3D Matrix Elasticity” (Trustees of the University of Pennsylvania, priority 2006, published 2010)

Legend:
[1] = target: myosin light chain kinase (MLCK) (Homo sapiens, UniProt Q15746); conditions: at concentrations inhibiting NMM II ATPase; cited from earlier work
[2] = system: MSCs, C2C12-myoblasts, hFOB-osteoblasts; assay: Traction force measurement, cell pre-stress; type: cell-based; conditions: any matrix
Excerpt: Traction Force Measurements: Adhesive stresses, imposed on the matrix surface by an adherent cell, generate a displacement field from embedded beads within a soft substratum, which can be mapped on the cell if the gel can be approximated as a semi-infinite solid. Briefly, the well characterized traction force method (Butler et al., 2002, supra; Dembo et al., 1999, supra; Wang et al., 2002b, supra) uses bead displacements between images with, and without, the adherent cell to assemble a displacement field and determine Green's strain function given known material properties of the substratum (elastic modulus, Poisson's ratio, etc). The traction field was used to obtain the cell pre-stress, i.e., the net tensile force over the cell-matrix interface carried by the actin cytoskeleton across a cross-sectional area of the cell that balances cell traction forces (Wang et al., 2002b, supra).

[3] = system: MSCs; assay: 3D hydrogel sandwich overlay, cell morphology; type: cell-based, human; conditions: treated after the overlay procedure
Protocol: Hydrogel Sandwich Preparation: The whole procedure is performed in a biosafety cabinet to maintain sterility. All equipment used was either sterile or sterilized by UV treatment for one hour. To produce the sandwich-like structures, cells were cultured for a given time on regular 2D substrates supported by 25 mm aminosilanized cover slips, rinsed with PBS and dried of the bulk liquid. 35 μl of the hydrogel mixture was added immediately and the sample was covered with a hydrophobic chlorosilanized glass slip to create a homogenous overlay gel. After one hour the top cover slip was carefully removed and the sandwich rinsed with PBS to remove any unbound residues. Subsequently, the gels were incubated for two hours at 37° C./5.0% CO2 in media supplemented with 1.5% or 2% cysteine (w/v) or iodacetamide solution using a shaker to cap or inactivate any remaining free thiols. […]
Immuno-staining, fluorescence microscopy, and image analysis: Cells were fixed for five minutes in a 10% solution of formaldehyde (Sigma) in PBS (Gibco) and subsequently permeabilized with a 0.5% solution of TritonX 100 (Sigma) in PBS followed by rinsing in PBS. […]
Cell area A and spindle factor r (ratio of major to minor axis of a fitted ellipse) were determined using the built-in functions of ImageJ (available at http:rsb.info.nih.gov/ij; developed by Wayne Rasband, National Institutes of Health, Bethesda, Md.). […]

[4] = system: NMM II ATPase; conditions: cited from earlier work
[5] = system: MSCs; assay: MSC morphology (branching, spindle factor, spreading) on collagen-coated gels; type: cell-based, human
Protocol: Cell Culture: Human Mesenchymal Stem Cells (MSCs; Osiris Therapeutics; Baltimore, Md. or Lonza), human osteoblasts (hFOBs; ATCC, Manassas, Va.), primary human skin fibroblasts (FC7) (Engler et al., 2004c, supra), and murine myoblasts (C2C12s; ATCC) were cultured in normal growth media, such as low glucose DMEM (Invitrogen) supplemented with 10% fetal bovine serum (FBS, Sigma) and 1% penicillin/streptomycin (Invitrogen) in regular tissue culture treated flasks (Corning). See also, U.S. Ser. No. 11/351,420. Media was exchanged every other day and cells were used up to passage number nine.
(§1) To inhibit proliferation, cells were exposed to mitomycin C (10 μg/ml) for 2 hr and washed three times with media prior to plating. Blebbistatin (50 μM; EMD Biosciences, Inc., San Diego, Calif.), a NMM II inhibitor, was applied with every media change and was stable in culture media for up to 48 hours, as determined by thin layer chromatography.
(§2) 1) Morphological Changes and Immunofluorescence: Changes in cell shape (<4 days), especially the development of neurite-like branches (Engler et al., 2004c, supra) or spindle-like morphologies (Flanagan et al., 2002, supra), were quantified either by the number of membrane branches per mm of cell or by a “spindle factor,” referring to the major cell axis/minor cell axis, respectively. […]

[6] = system: MSCs, C2C12-myoblasts, hFOB-osteoblasts; assay: Creep-test micropipette aspiration, membrane cortical stiffness; type: cell-based
Protocol: Creep-test Micropipette Aspiration: Micropipettes were forged using a deFonbrune-type microforge (Vibratome, St. Louis, Mo.) to a radius of 2-3 μm with an approximately 25° pipette curvature so when mounted in micromanipulators (Nirishige; Japan) at an angle similar to the micropipette's curvature. The end of the pipette was flush with the cell edge. A step pressure drop was imposed on the cell membrane, causing the membrane projection, L, to aspirate into the pipette as a function of time (t), pressure drop (ΔP) and pipette radius (R), as governed by the Sato and coworkers' viscoelastic half-space model (Sato et al., J. Biomech. Eng. 112:263-268 (1990), herein incorporated by reference:
Images of the projection length were taken every 2 seconds in brightfield on a TE300 inverted Nikon microscope and cascade CCD camera (Photometrics), which allowed accurate fitting of the parameters κ, μ′, and τ to the data to determine the elastic and viscous moduli of each membrane.

[7] = system: MSCs; assay: Lineage marker expression (immunofluorescence, western blot, oligonucleotide array); type: cell-based, human; conditions: blebbistatin 50 μM
Protocol: as §2
Cells were fixed with formaldehyde, incubated in a 5% albumin blocking solution for 1 hour at 37° C., permeabilized with 0.5% Triton-X-100 and incubated overnight at 4° C. in 1:100 dilution of antibodies in PBS. […] Cell morphology and fluorescently labeled cells were examined on a TE300 inverted epi-fluorescent Nikon or Olympus (TIRF) microscope, imaged on a cascade CCD camera (PhotoMetrics, Huntington, Beach, Calif.), and quantified with Scion Image (Scion Corp., Frederick, Md.).
2) Western blotting: Cells (with or without blebbistatin treatment, 50 μM) were also plated on 45×50 mm coverslips to obtain enough cells for western blotting. […] Quantification of western blots was done by Scion Image software. […]

[8] = system: vertebrate cells; conditions: cited from earlier work
[9] = Stability in culture media by thin layer chromatography; type: physicochemical; conditions: 50 μM
Protocol: as §1

[10] = system: hMSCs; assay: Nucleus morphology of hMSCs on gels; type: cell-based, human; conditions: 11 kPa substrates
Protocol: Immuno-staining, fluorescence microscopy, and image analysis: Cells were fixed for five minutes in a 10% solution of formaldehyde (Sigma) in PBS (Gibco) and subsequently permeabilized with a 0.5% solution of TritonX 100 (Sigma) in PBS followed by rinsing in PBS. Samples were then incubated in a 1:250 solution of the appropriate primary antibody in a 3% solution of BSA (Sigma) in PBS for at least 2 hours at room temperature on a rocker. To remove any unspecifically bound antibodies, the gels were incubated with a 0.5% solution of TritonX 100 for five minutes and rinsed with PBS twice, followed by incubation with secondary antibodies (1:250 in 3% BSA in PBS) and rhodamine-phalloidin (Sigma) for at least one hour on a rocker at room temperature. […]
Cell area A and spindle factor r (ratio of major to minor axis of a fitted ellipse) were determined using the built-in functions of ImageJ (available at http:rsb.info.nih.gov/ij; developed by Wayne Rasband, National Institutes of Health, Bethesda, Md.).
Since matrix elasticity not only influences cell and cytoskeleton morphology, but also the differentiation of hMSCs, and therefore global changes in patterns of gene expression, the morphology of the nucleus was analyzed in terms of projected area A and spindle factor of the projected area r to gain insight into the transduction of mechanical signals from the matrix to the nucleus. […]

[11] = system: neuronal motility; conditions: at mM concentrations; cited from earlier work

myosin light chain kinase (MLCK), sequence (Q15746 whole entry): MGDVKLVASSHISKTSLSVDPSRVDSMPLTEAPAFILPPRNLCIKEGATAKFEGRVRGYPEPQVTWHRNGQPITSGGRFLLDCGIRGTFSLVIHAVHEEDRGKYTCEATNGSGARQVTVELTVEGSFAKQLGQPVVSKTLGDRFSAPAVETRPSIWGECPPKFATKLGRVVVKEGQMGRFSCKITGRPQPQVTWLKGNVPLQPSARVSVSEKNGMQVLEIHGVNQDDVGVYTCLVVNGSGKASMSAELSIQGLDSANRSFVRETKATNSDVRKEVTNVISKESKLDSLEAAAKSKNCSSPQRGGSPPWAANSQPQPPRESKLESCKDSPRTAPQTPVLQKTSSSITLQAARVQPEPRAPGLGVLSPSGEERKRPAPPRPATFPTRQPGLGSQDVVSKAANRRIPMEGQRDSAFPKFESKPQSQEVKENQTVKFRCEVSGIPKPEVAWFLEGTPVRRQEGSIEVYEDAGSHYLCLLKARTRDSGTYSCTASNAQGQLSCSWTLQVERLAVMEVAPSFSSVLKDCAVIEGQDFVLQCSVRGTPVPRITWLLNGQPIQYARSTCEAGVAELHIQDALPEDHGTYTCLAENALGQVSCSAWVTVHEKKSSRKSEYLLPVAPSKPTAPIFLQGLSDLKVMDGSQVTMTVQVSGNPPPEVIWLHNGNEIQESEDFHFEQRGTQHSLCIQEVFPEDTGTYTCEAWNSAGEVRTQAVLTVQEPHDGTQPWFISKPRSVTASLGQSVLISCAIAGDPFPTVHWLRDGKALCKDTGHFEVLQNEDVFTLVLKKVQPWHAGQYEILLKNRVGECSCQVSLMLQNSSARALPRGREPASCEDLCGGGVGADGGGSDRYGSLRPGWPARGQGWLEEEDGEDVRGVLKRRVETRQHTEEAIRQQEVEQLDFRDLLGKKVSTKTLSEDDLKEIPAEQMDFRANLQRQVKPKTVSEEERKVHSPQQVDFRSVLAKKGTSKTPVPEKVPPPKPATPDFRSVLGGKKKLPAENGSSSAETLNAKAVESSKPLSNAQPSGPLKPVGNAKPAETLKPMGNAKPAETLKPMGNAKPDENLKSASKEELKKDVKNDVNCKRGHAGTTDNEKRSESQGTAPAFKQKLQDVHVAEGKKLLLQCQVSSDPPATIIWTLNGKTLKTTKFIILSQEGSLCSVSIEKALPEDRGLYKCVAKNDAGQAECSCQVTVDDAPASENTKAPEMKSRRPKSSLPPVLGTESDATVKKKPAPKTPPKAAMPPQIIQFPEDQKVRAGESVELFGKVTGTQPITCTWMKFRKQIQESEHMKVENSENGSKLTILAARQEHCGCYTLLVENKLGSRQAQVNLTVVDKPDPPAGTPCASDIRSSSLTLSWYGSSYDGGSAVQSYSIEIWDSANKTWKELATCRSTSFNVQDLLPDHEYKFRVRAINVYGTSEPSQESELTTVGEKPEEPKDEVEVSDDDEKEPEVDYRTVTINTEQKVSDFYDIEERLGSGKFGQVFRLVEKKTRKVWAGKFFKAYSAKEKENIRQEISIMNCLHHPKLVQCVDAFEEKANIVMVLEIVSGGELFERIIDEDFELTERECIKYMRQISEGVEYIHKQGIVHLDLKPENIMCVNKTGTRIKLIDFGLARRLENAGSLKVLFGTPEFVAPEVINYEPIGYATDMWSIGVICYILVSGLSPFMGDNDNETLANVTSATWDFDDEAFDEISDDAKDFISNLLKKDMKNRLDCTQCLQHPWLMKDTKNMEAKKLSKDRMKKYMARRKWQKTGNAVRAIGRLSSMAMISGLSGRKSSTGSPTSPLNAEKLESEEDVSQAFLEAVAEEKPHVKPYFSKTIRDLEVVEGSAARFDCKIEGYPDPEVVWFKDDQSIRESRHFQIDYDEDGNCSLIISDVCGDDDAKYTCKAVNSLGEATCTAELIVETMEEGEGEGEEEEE

Cc1ccc2c(c1)C(=O)C1(O)CCN(c3ccccc3)C1=N2 (centres unmarked) [blebbistatin]
effect on myosin light chain kinase [1]: without affecting
development of pre-stress σ [2]: prevented any of the cells from developing
actin stress fibers of cells in sandwich overlay [3]: lacked any organized actin stress fibers
spindle factor r of cells in sandwich overlay [3]: not significantly different from that of the 2D control
drug concentration inhibiting NMM II ATPase activity [4]: < 10 µM
branching, elongation and spreading of MSCs ([5]; blebbistatin 50 μM, cells on any substrate): block branching, elongation, and any significant spreading of MSCs
development of cortical stiffness κ ([6]; any matrix): prevented any of the cells from developing
softening of cell membranes (membrane cortical stiffness) ([6]; micropipette aspiration, all gels): more than 3 fold
lineage marker expression by MSCs [7]: blocked all marker expression
cell blebbing, directed cell migration and cytokinesis [8]: blocking cell blebbing and rapidly disrupting directed cell migration and cytokinesis
stability in culture media [9]: up to 48 hours
matrix-dependent change of nucleus projected area and aspect ratio [10]: inhibited

CC(=O)/C(C)=N/O [BDM]
neuronal motility [11]: block neuronal motility

CO[C@@]12[C@H](COC(N)=O)C3=C(C(=O)C(C)=C(N)C3=O)N1C[C@@H]1N[C@@H]12 [mitomycin-C, mitomycin C]
average cell shape after inhibition of proliferation ([5]; mitomycin C 10 μg/ml for 2 hr before plating): little impact on average cell shape
